Assay results published in PubChem BioAssay AID248 (DTP/NCI, 2004).
“And” between values parts separate entries of the source, which are not always exact repeats. Identical values can stand only once. Toxic doses and inconclusive results are not listed. No stated cut-off is given here; in the data, active means T/C of 150% or more; inactive means T/C below 125%. Square brackets hold non-standard residues; d marks the D form. Peptide text beside a SMILES is read from it. ξ: configuration not given here. ξD = NC(CC(=O)O)C(=O)O

Test system: L1210 leukemia ip in BDF1 mice, survival T/C
Assay: NCI In Vivo Anticancer Drug Screen. Data for tumor model L1210 Leukemia (intraperitoneal) in B6D2F1 (BDF1) mice
Settings: endpoint: mean survival time, higher = longer survival
Outline: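 Each compound was tested against a transplantable tumor grown in mice. The endpoint was survival, with treated animals benchmarked against vehicle controls as a simple ratio.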

[1] = dose: 100.0 mg/kg/injection, schedule: Q01DX009 (ip), vehicle: saline with Tween-80
[2] = dose: 100.0 mg/kg/injection, schedule: Q04DX003 (ip), vehicle: saline with Tween-80
[3] = dose: 200.0 mg/kg/injection, schedule: Q01DX009 (ip), vehicle: saline with Tween-80
[4] = dose: 200.0 mg/kg/injection, schedule: Q04DX003 (ip), vehicle: saline with Tween-80
[5] = dose: 400.0 mg/kg/injection, schedule: Q01DX009 (ip), vehicle: saline with Tween-80
[6] = dose: 400.0 mg/kg/injection, schedule: Q04DX003 (ip), vehicle: saline with Tween-80
[7] = dose: 100.0 mg/kg/injection, schedule: Q01DX009 (ip), vehicle: Klucel (hydroxypropylcellulose) (HPC)
[8] = dose: 200.0 mg/kg/injection, schedule: Q01DX009 (ip), vehicle: Klucel (hydroxypropylcellulose) (HPC)
[9] = dose: 100.0 mg/kg/injection, schedule: Q04DX002 (ip), vehicle: Klucel (hydroxypropylcellulose) (HPC)
[10] = dose: 200.0 mg/kg/injection, schedule: Q04DX002 (ip), vehicle: Klucel (hydroxypropylcellulose) (HPC)
[11] = dose: 400.0 mg/kg/injection, schedule: Q04DX002 (ip), vehicle: Klucel (hydroxypropylcellulose) (HPC)
[12] = dose: 100.0 mg/kg/injection, schedule: Q01DX001 (ip), vehicle: saline
[13] = dose: 200.0 mg/kg/injection, schedule: Q01DX001 (ip), vehicle: saline
[14] = dose: 400.0 mg/kg/injection, schedule: Q01DX001 (ip), vehicle: saline
[15] = dose: 100.0 mg/kg/injection, schedule: Q01DX009 (ip), vehicle: saline
[16] = dose: 200.0 mg/kg/injection, schedule: Q01DX009 (ip), vehicle: saline
[17] = dose: 400.0 mg/kg/injection, schedule: Q01DX009 (ip), vehicle: saline
[18] = dose: 100.0 mg/kg/injection, schedule: Q04DX003 (ip), vehicle: Klucel (hydroxypropylcellulose) (HPC)
[19] = dose: 200.0 mg/kg/injection, schedule: Q04DX003 (ip), vehicle: Klucel (hydroxypropylcellulose) (HPC)
[20] = dose: 100.0 mg/kg/injection, schedule: Q01DX001 (ip), vehicle: other
[21] = dose: 200.0 mg/kg/injection, schedule: Q01DX001 (ip), vehicle: other
[22] = dose: 100.0 mg/kg/injection, schedule: Q04DX003 (ip), vehicle: saline
[23] = dose: 200.0 mg/kg/injection, schedule: Q04DX003 (ip), vehicle: saline
[24] = dose: 400.0 mg/kg/injection, schedule: Q04DX003 (ip), vehicle: saline
[25] = dose: 400.0 mg/kg/injection, schedule: Q04DX003 (ip), vehicle: Klucel (hydroxypropylcellulose) (HPC)
[26] = dose: 5.0 mg/kg/injection, schedule: Q01DX001 (ip), vehicle: saline
[27] = dose: 10.0 mg/kg/injection, schedule: Q01DX001 (ip), vehicle: saline
[28] = dose: 20.0 mg/kg/injection, schedule: Q01DX001 (ip), vehicle: saline

Measured: T/C

Cc1ccc(NS(=O)(=O)c2ccc([N+](=O)[O-])cc2)c(C)c1
inactive: [1] 98 % of control | [2] 88 % of control | [3] 101 % of control | [4] 89 % of control | [5] 98 % of control | [6] 86 % of control

CNC(=O)Nc1nnc(C)s1
inactive: [7] 98 % of control | [8] 106 % of control | dose: 400.0 mg/kg/injection, schedule: Q01DX009 (ip), vehicle: Klucel (hydroxypropylcellulose) (HPC) 114 % of control

NC(CC(=O)O)C(=O)NCC(=O)O (stereo not drawn) (H-[ξD]-Gly-OH)
inactive: dose: 12.5 mg/kg/injection, schedule: Q04DX002 (ip), vehicle: Klucel (hydroxypropylcellulose) (HPC) 98 % of control | dose: 25.0 mg/kg/injection, schedule: Q04DX002 (ip), vehicle: Klucel (hydroxypropylcellulose) (HPC) 94 % of control | dose: 50.0 mg/kg/injection, schedule: Q04DX002 (ip), vehicle: Klucel (hydroxypropylcellulose) (HPC) 94 % of control | [9] 117 % of control

Cc1ccc([N+](=O)[O-])cc1
inactive: [9] 103 % of control | [10] 103 % of control | [11] 95 % of control

CCN(CC)C(=S)S.[Cu+2]
inactive: [12] 105 % of control | [13] 102 % of control | [14] 105 % of control

COC(=O)CNCc1ccccc1
inactive: dose: 100.0 mg/kg/injection, schedule: Q01DX009 (ip), vehicle: water 98 % of control | dose: 200.0 mg/kg/injection, schedule: Q01DX009 (ip), vehicle: water 115 % of control | dose: 400.0 mg/kg/injection, schedule: Q01DX009 (ip), vehicle: water 100 % of control

CC(=O)NS(=O)(=O)c1ccc(N=Cc2cc(Cl)cc(Cl)c2O)cc1
inactive: [15] 111 % of control | [16] 102 % of control | [17] 102 % of control

Cc1cc(=O)[nH]c(N/N=C2/CCCCC2C)n1 (stereo not drawn)
inactive: dose: 50.0 mg/kg/injection, schedule: Q01DX009 (ip), vehicle: Klucel (hydroxypropylcellulose) (HPC) 100 % of control | [7] 95 % of control | [18] 100 % of control | [8] 100 % of control | [19] 97 % of control

CC1=C(/C=C/C(C)=C/C=C/C(C)=C/CO)C(C)(C)CCC1
inactive: dose: 50.0 mg/kg/injection, schedule: Q01DX009 (ip), vehicle: steriod suspending solution 90 % of control | [20] 100 % of control | dose: 100.0 mg/kg/injection, schedule: Q01DX009 (ip), vehicle: steriod suspending solution 95 % of control | dose: 150.0 mg/kg/injection, schedule: Q01DX001 (ip), vehicle: other 98 % of control | [21] 95 % of control and 102 % of control | dose: 200.0 mg/kg/injection, schedule: Q01DX001 (sc), vehicle: steriod suspending solution 101 % of control | dose: 400.0 mg/kg/injection, schedule: Q01DX001 (sc), vehicle: steriod suspending solution 98 % of control

NC(=O)OCC(N)C(=O)O (stereo not drawn)
inactive: dose: 75.0 mg/kg/injection, schedule: Q01DX001 (ip), vehicle: saline 96 % of control | [1] 89 % of control | dose: 150.0 mg/kg/injection, schedule: Q01DX001 (ip), vehicle: saline 94 % of control | [3] 87 % of control | dose: 300.0 mg/kg/injection, schedule: Q01DX001 (ip), vehicle: saline 100 % of control | [5] 90 % of control

CCC(N)C(=O)O (stereo not drawn)
inactive: [12] 108 % of control | [13] 102 % of control | [14] 94 % of control

Cc1nc2ccccc2nc1N1CCCC1
inactive: dose: 111.0 mg/kg/injection, schedule: Q01DX Z (ip), vehicle: methylcellulose (MC) 101 % of control | dose: 166.0 mg/kg/injection, schedule: Q01DX Z (ip), vehicle: methylcellulose (MC) 92 % of control | dose: 250.0 mg/kg/injection, schedule: Q01DX Z (ip), vehicle: methylcellulose (MC) 114 % of control

O=C(O)c1c(Cl)nsc1Cl
inactive: [7] 98 % of control | [8] 98 % of control

O=C(O)CCCC[P+](c1ccccc1)(c1ccccc1)c1ccccc1
inactive: [15] 98 % of control | [22] 105 % of control | [16] 100 % of control | [23] 107 % of control | [24] 102 % of control

OCC(F)(F)F
inactive: dose: 50.0 mg/kg/injection, schedule: Q01DX001 (ip), vehicle: saline 98 % of control | [12] 110 % of control | [13] 102 % of control | [14] 108 % of control

COC1OC(COC(C)=O)C(OC(C)=O)C(OC(C)=O)[CH]1[Hg][O]C(C)=O (stereo not drawn)
inactive: dose: 6.25 mg/kg/injection, schedule: Q04DX003 (ip), vehicle: saline 96 % of control | dose: 12.5 mg/kg/injection, schedule: Q04DX003 (ip), vehicle: saline 98 % of control | dose: 25.0 mg/kg/injection, schedule: Q04DX003 (ip), vehicle: saline 92 % of control

CCCCOC(=O)c1cccnc1
inactive: dose: 50.0 mg/kg/injection, schedule: Q04DX003 (ip), vehicle: saline with Tween-80 97 % of control | [2] 94 % of control and 102 % of control | [4] 103 % of control | [6] 91 % of control

CCOC(=O)C(=CNc1ccc(Cl)cc1Cl)C(=O)OCC
inactive: [20] 93 % of control | [21] 101 % of control | dose: 400.0 mg/kg/injection, schedule: Q01DX001 (ip), vehicle: other 101 % of control

Cc1ccc(C(=O)/C=C\c2ccc(Cl)c(Cl)c2)cc1
inactive: [9] 92 % of control | [10] 106 % of control | [11] 95 % of control

CC(C(=O)Nc1ccc(Cl)c(Cl)c1)C(=O)Nc1ccc(Cl)c(Cl)c1
inactive: dose: 100.0 mg/kg/injection, schedule: Q04DX002 (ip), vehicle: gum acacia 92 % of control | dose: 200.0 mg/kg/injection, schedule: Q04DX002 (ip), vehicle: gum acacia 103 % of control | dose: 400.0 mg/kg/injection, schedule: Q04DX002 (ip), vehicle: gum acacia 99 % of control

O=CNc1ccc(O)cc1
inactive: [1] 104 % of control | [3] 108 % of control | [5] 114 % of control

COC(=O)c1cc(I)cc(I)c1N
inactive: dose: 100.0 mg/kg/injection, schedule: Q01DX001 (ip), vehicle: saline with Tween-80 98 % of control | dose: 200.0 mg/kg/injection, schedule: Q01DX001 (ip), vehicle: saline with Tween-80 98 % of control | dose: 400.0 mg/kg/injection, schedule: Q01DX001 (ip), vehicle: saline with Tween-80 100 % of control

O=P1(CCc2ccccc2)CC(Br)C(Br)C1 (stereo not drawn)
inactive: [18] 101 % of control | [19] 106 % of control | [25] 98 % of control

O=C(Nc1cccc(Cl)c1)Oc1ccc2ccccc2c1
inactive: [15] 90 % of control | dose: 100.0 mg/kg/injection, schedule: Q04DX004 (ip), vehicle: saline 104 % of control | [16] 101 % of control | dose: 200.0 mg/kg/injection, schedule: Q04DX004 (ip), vehicle: saline 90 % of control | [17] 101 % of control | dose: 400.0 mg/kg/injection, schedule: Q04DX004 (ip), vehicle: saline 98 % of control

NNc1ncccn1
inactive: [26] 102 % of control | [27] 109 % of control | [28] 113 % of control

CNC(=O)c1ccccc1
inactive: [22] 104 % of control | [23] 98 % of control | [24] 98 % of control

c1ccc([S+]([CH2][Hg][CH2][S+](c2ccccc2)c2ccccc2)c2ccccc2)cc1
inactive: [26] 92 % of control | [27] 109 % of control | [28] 119 % of control

O=C1c2cccc(NCCO)c2C(=O)c2c(NCCO)cccc21
inactive: [18] 94 % of control | [19] 102 % of control | [25] 94 % of control
